Results taken from patent US20240025886A1, “INHIBITORS OF IGF2BP1-RNA BINDING” (YISSUM RESEARCH DEVELOPMENT COMPANY OF THE HEBREW …, priority 2020, published 2024).

Assays:
La = La (Homo sapiens, UniProt P05455); assay: MST binding to control RNA binding protein La
[1] = tested on: LKR-M cells transfected with full length human Igf2bp1-GFP; assay: Wound healing assay, LKR-M cells expressing human Igf2bp1-GFP; type: cell-based, mouse; parameters: dose or concentration left out as unconfirmed; details: 7773 vs DMSO
Protocol: (§1) Cells were seeded in 96 IncuCyte® ImageLock plates (20×10^3 cells per well) for 24 hours, to a near confluency of 95%, before the addition of increasing concentrations of compound. After a further 24 hours, wells were scratched using the IncuCyte® 96-well WoundMaker Tool, and the cells cultured for an additional 48 hours using the IncuCyte® S3 Live-Cell Analysis System (Essen BioScience). The plate was imaged at increments of 120 minutes for a period of 48 hours, and then analyzed for relative wound healing.

Igf2bp2 = target: T1, Igf2bp2 (Homo sapiens, UniProt Q9Y6M1); assay: MST binding to Igf2bp2; details: even at concentrations that almost saturate binding to Igf2bp1
T1 construct: His tag (C); made in house; host or cells: E. coli BL21(DE3)
T1 sequence (Q9Y6M1 whole entry, species assumed): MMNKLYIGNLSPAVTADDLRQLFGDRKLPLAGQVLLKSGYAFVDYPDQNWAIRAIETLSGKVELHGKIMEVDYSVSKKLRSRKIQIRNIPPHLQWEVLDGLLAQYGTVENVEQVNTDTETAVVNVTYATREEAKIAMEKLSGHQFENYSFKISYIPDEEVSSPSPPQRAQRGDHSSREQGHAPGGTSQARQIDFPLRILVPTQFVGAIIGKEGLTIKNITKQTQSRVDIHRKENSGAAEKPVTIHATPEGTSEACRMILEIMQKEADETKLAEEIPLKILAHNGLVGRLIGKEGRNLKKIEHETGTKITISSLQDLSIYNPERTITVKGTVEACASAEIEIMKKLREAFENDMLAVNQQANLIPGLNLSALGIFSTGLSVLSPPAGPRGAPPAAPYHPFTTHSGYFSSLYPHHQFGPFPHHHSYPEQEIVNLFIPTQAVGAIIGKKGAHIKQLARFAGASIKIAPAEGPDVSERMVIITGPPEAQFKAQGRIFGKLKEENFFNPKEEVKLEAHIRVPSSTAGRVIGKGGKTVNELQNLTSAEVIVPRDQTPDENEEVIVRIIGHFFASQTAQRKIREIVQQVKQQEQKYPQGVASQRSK

Igf2bp1 KH12 di-domain = target: T2, Igf2bp1 KH12 di-domain (Homo sapiens, UniProt Q9NZI8); assay: MST binding to Igf2bp1 di-domain KH12
T2 construct: KH12 (V194-N369); 6xHis/GST (N, cleaved yes); made in house; host or cells: E. coli BL21(DE3)
T2 sequence (Q9NZI8 194-369): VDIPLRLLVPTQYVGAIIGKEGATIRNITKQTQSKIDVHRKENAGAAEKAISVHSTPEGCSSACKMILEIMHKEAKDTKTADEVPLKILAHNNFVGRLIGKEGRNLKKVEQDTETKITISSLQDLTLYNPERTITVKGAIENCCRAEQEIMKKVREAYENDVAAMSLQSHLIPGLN
Protocol: (§2) Recombinant full-length Igf2bp1 protein was labelled with RED-tris-NTA dye using a Monolith NT His-Tag Labelling Kit (NanoTemper) while RRM12, KH12 and KH34 di-domain peptides were labelled using the Protein Labeling Kit RED NHS 2nd generation (NanoTemper). Labelled proteins were spun at 15,000 g for 5 min to eliminate aggregates. All samples were 2× labelled protein mix of Igf2bp1 (200 nM) in PBST and were combined (1:1) with serial dilutions of compound or Kras6 RNA in binding buffer (10 mMTris pH=7.5, 100 mM NaCl, 0.1 mM EDTA, 0.06% IPEGAL, 0.02 μg/μL tRNA, 2 mM DTT, 0.1 μg/μL heparin) in final volume of 20 μL, room temperature for 15 min. Samples were then loaded into standard capillaries (NanoTemper) and read in the Monolith NT.115 scanner (NanoTemper) using the red filter with reading conditions of 95% LED power and 40% MST power, 5 sec fluorescence before, 30 sec MST on, 5 sec fluorescence after and 25 sec delay between samples. Results were analyzed using the MO Control software (NanoTemper) for curve fitting to KD.

La binding to Bcl2 RNA = La binding to Bcl2 RNA (Homo sapiens, UniProt P05455); assay: FP counter assay, La binding to Bcl2 RNA
La binding to Bcl2 RNA, sequence (P05455 whole entry): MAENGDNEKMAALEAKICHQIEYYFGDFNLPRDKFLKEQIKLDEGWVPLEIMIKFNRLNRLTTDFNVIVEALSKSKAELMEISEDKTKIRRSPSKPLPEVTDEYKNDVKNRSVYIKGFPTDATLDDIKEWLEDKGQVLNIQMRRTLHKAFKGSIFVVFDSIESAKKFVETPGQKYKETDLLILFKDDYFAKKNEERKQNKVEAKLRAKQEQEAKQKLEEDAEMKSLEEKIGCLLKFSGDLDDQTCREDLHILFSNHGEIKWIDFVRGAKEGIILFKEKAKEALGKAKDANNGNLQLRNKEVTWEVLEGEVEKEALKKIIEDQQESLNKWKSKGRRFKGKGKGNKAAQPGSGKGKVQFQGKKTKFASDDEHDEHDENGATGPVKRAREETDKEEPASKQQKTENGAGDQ

[2] = tested on: LKR-M cells transfected with GFP alone; assay: Wound healing assay, LKR-M cells expressing GFP alone; type: cell-based, mouse; details: 20 mM 7773 vs DMSO
Protocol: as §1

[3] = tested on: Igf2bp1 split-luciferase reporter in RKO cells; assay: Split-luciferase assay of Igf2bp1 dimerization in RKO cells; type: cell-based; parameters: dose or concentration left out as unconfirmed
Protocol: Vectors expressing different fragments of split luciferase reporters with flexible linker were procured from Addgene (catalog #58786, 58787, 58788 and 58789). The vectors were digested with EcoRI and XhoI. EcoRI and XhoI restriction enzyme sites were added to 5′ and 3′ ends of the coding region of IGF2BP1 respectively using PCR. The inventors constructed four split luciferase reporter vectors by cloning IGF2BP1 in different orientation with the luciferase fragments (FIG. 8B). Primers used for the amplification of IGF2BP1 were: […]
The RKO cells were seeded in DMEM with 10% calf serum 24 hrs prior to the transfection. Transfection was done using Lipofectamine 2000 with reporter plasmids and Renilla-luciferase expressing vector (as internal control). After 24 hrs, cells were lysed using passive lysis buffer (Promega catalog #E1941). The lysates were cleared by centrifugation and its […] volume was mixed with […] of luciferase substrate solution for luminescence recording which was followed by addition of […] of Stop-glo solution (Promega catalog #E1910) with an additional luminescence reading. Both readings were detected by using GloMax 20/20 Luminometer (Promega), and the final value for each sample was the ratio of their two respective readings. […]

HEK293 cells [4] = assay: Wound healing (cell migration) assay, HEK293 cells; type: cell-based, human
Protocol: as §1

[5] = tested on: control luciferase in RKO cells; assay: Control (wild type) luciferase in RKO cells; type: cell-based; details: 50 mM 7773
Protocol: The RKO cells were seeded in DMEM with 10% calf serum 24 hrs prior to the transfection. Transfection was done using Lipofectamine 2000 with reporter plasmids and Renilla-luciferase expressing vector (as internal control). After 24 hrs, cells were lysed using passive lysis buffer (Promega catalog #E1941). The lysates were cleared by centrifugation and its […] volume was mixed with […] of luciferase substrate solution for luminescence recording which was followed by addition of […] of Stop-glo solution (Promega catalog #E1910) with an additional luminescence reading. Both readings were detected by using GloMax 20/20 Luminometer (Promega), and the final value for each sample was the ratio of their two respective readings. To test the effects of 7773, transfected cells with reporter plasmids were washed with PBS after 24 hrs of transfection and incubated with medium containing 7773.

H1299 cells [6] = assay: Cytotoxicity and cell viability, H1299 cells; type: cell-based, human; parameters: Cell viability: dose or concentration left out as unconfirmed
H1299 cells [7] = assay: Cell proliferation assay (Incucyte), H1299 cells; type: cell-based, human; details: H1299, up to 20 mM 7773
Protocol: (§3) ES2, H1299 and HEK293 cells were seeded in a 96 well plate (5×10^3 cells per well) for 24 hours before adding the compound at increasing concentrations. After an additional 24 hours, the plate was incubated in an IncuCyte® S3 Live-Cell Analysis System (Essen BioScience). The wells were filmed for 72 hours, and then analyzed for proliferation rate Using IncuCyte® S3 Live-Cell Analysis System (Essen BioScience)

ES2 cells = assay: Real-time PCR of steady state RNA levels in ES2 cells; type: cell-based, human; parameters: dose or concentration left out as unconfirmed
Protocol: Primers were calibrated for several Igf2bp1 RNA targets (Table 3): […]
Cells were grown for 12 hours in 12 well plates prior to incubation with the compound at different concentrations for an additional 12 or 24 hours. Total RNA was then extracted using EZ-RNA total RNA isolation kit (Biological Industries) and cDNA prepared from the RNA using the First Strand cDNA Synthesis kit (Quanta bio). Real time PCR was performed with Fast SYBR Green Master Mix (Thermo Fisher Scientific), and cDNA expression analyzed with the Bio-Rad CFX Manager 3.1.

Igf2bp1 KH34 di-domain = target: T3, Igf2bp1 KH34 di-domain (Homo sapiens, UniProt Q9NZI8); assay: MST binding to Igf2bp1 di-domain KH34
T3 construct: KH34 (P387-A574); 6xHis (N, cleaved yes); made in house; host or cells: E. coli BL21(DE3)
T3 sequence (Q9NZI8 387-574): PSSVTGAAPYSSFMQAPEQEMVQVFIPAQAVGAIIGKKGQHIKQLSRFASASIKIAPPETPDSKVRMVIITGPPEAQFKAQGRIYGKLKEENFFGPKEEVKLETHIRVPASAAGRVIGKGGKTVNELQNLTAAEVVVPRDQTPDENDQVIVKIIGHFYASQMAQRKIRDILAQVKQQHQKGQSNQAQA
Protocol: as §2

HEK293 cells [8] = assay: Cell proliferation assay (Incucyte), HEK293 cells; type: cell-based, human; parameters: dose or concentration left out as unconfirmed; details: HEK293, 7773
Protocol: as §3

La, sequence (P05455 whole entry): as the sequence (P05455 whole entry) above

## O=C(c1ccc(Cn2cnnn2)cc1)N1CCCC(Nc2ccc3c(c2)OCO3)C1 (stereo not shown) [Compound 7773]
La
  Binding to La (MST): no binding
[1]
  Inhibition of Igf2bp1-GFP enhanced wound healing: significantly inhibited
Igf2bp2
  Binding to Igf2bp2 (MST): did not significantly bind
Igf2bp1 KH12 di-domain
  Binding to KH12 (MST): no binding
La binding to Bcl2 RNA; FP
  Effect on control RBP (La) binding to its target (Bcl2 RNA): almost no effect
La binding to Bcl2 RNA; FP control, n=3, read-out: IC50 for inhibition of La binding to Bcl2 RNA
  IC50: > 100 µM
[2]
  Effect on migration of cells expressing GFP alone: unaffected
[3]
  Split-luciferase luminescence: significantly reduced luminescence
HEK293 cells [4]; HEK293, 5 mM 7773
  Inhibition of wound healing: discernible inhibition
HEK293 cells [4]; HEK293, 20 mM 7773
  Inhibition of wound healing: strongly inhibited
[5]
  Activity of wild type luciferase: did not affect
H1299 cells [6]; H1299, 20, 10 or 5 mM 7773, 48 hours
  Cytotoxicity: virtually no effect
H1299 cells [6]; H1299, 7773, 48 hours
  Cell viability: does not affect
H1299 cells [7]
  Cell proliferation: remarkably unaffected
ES2 cells; ES2, 7773, 12 hours
  Steady state levels of CD44, Kras, cMyc and SRF RNA: reduced
ES2 cells; ES2, 7773, 12 hours, appeared to recover after 24 hours
  Steady state level of CD44 RNA: strongly reduced
ES2 cells; ES2, 7773, 24 hours
  Steady state levels of control RNAs (not targets of Igf2bp1): not significantly affected
Igf2bp1 KH34 di-domain
  Kd: 7.2 µM
HEK293 cells [8]
  Cell proliferation: remarkably unaffected
